A word on the IC50: it is the concentration that gives 50% inhibition.

Data set [1] relates to MCF-7 spheroids. The data set is described as follows: Primary sphere formation. The class given is cell-based, human. On the procedure:
(§1) 5000 cells/well were seeded in ultra low attachment plates. After 3 days of seeding, the spheres formed were kept with different concentrations of 6-shogaol and/or 25 μM DAPT for 7 days and the number of spheres were counted under the microscope. These primary spheres were dispersed and kept in fresh media without any treatment and counted again after 7 days to check the ability to regrow into secondary spheres. Control primary spheres were also processed similarly for comparison. Spheres were counted in Olympus IX71 microscope using 10X objective.

The test system of data set [2] is MCF-7 spheroid. The data set is described as follows: MTT cytotoxicity assay, spheroids. The class given is cell-based, human. To be noted: for IC50: MTT, 48 hours, drug added three days after seeding. On the procedure: (§2) To check the effect of different drugs on the viability of spheroids, cells were seeded at 2.5×10^4 cells/well in 24-well ultra-low attachment plates and grown as spheroids. After 3 days, 6-shogaol (1–100 μM) or taxol (5 nM-50 μM) or curcumin (2–50 μM) was added to the wells and MTT assay was performed as explained above. Standard deviation was calculated from three independent experiments and the data were represented as the average of three experiments.

The test system of another data set is MDA MB-231 spheroid. The data set is described as follows: MTT cytotoxicity assay, spheroids. To be noted: for IC50: MTT, 48 hours, drug added three days after seeding. The class given is cell-based, human. As for the experimental part:
as §2

A further data set has as its system HEK 293 cells. The data set is described as follows: MTT cytotoxicity assay, noncancerous cells. Format: cell-based, human. On the procedure: (§3) Monolayer cells (5×10^3cells/well) were seeded in quadruplicates in 96 well plates and were incubated with varying concentrations of 6-shogaol (1–100 μM), taxol (0.2–100 nM) or curcumin (4–80 μM). The effect of the drugs on the viability of all the cell lines was quantified by MTT (3-[4,5-dimethylthiazol-2-yl]-2,5 diphenyltetrazolium bromide) assay at different time points after drug treatment using a Biorad Plate reader. The IC50 values were calculated from the plot of percentage cell viability versus concentration of drug using the nonlinear regression programme of Origin.
For orientation: Tetrazolium dyes change colour on reduction, which living cells bring about.

For a further data set, the system named is HaCaT cells. Kind of data set: MTT cytotoxicity assay, noncancerous cells. The class given is cell-based, human. As to conditions: 48 hours. On the procedure: as §3
The subject of data set [3] is breast cancer spheroids (CD44+CD24-/low cells). Kind of data set: Flow cytometric analysis of cell surface markers CD44/CD24. Format: cell-based, human. As to conditions: 40 μM, 18 hours; untreated 27.3%. As for the experimental part: Monolayer cells or spheroids (with or without treatment of 6-shogaol) were dispersed by trypsin-EDTA. Cells were then pelleted down by centrifugation at 1600 rpm for 5 minutes at 4°C and resuspended in 1 ml of DMEM containing 2% FBS. Fluorescein isothiocyanate (FITC)-conjugated CD24 monoclonal antibody and phycoerythrin (PE)-conjugated CD44 monoclonal antibody (BD Biosciences) were added in 1:100 dilution and incubated on ice for 45 minutes in dark. The cells were then analyzed by flow cytometer (BD FACS Aria II) for the expression of CD24 and CD44.
(In flow cytometry, cells or beads pass a laser one at a time.)

Data set [4] concerns MCF-7 cells. The data set is described as follows: DAPI staining for apoptosis (chromatin condensation). Format: cell-based, human. As to conditions: 25 μM. On the procedure:
Cells were seeded on cover slips. […] Cells were washed with PBS, fixed with Methanol-EDTA for 10 minutes at -20°C followed by rehydration with PBS at room temperature and incubated with 1 μg/ml DAPI. Mounted coverslips were visualised at 40X magnification under fluorescence microscope (Olympus IX71). Apoptotic cells were counted from five different fields.

A further data set relates to MCF-7 monolayer. Kind of data set: Cell cycle analysis by flow cytometry (propidium iodide). The class given is cell-based, human. To be noted: 16 μM (2×IC50), control 29%. As for the experimental part:
(§4) Cell cycle distribution of cells treated with 6-shogaol was analyzed by flow cytometric measurement of cellular DNA content. MCF-7 cells (5×10^5 cells/well) were subjected to 6-shogaol treatment for various time points. Culture media containing detached cells were collected and attached cells were trypsinized. Cells were pelleted, fixed in 70% (v/v) ethanol and stored at 4°C. In case of spheroids, cells were treated with different concentrations of 6-shogaol for 48 hours and fixed for further analysis. Before analysis, cells were re-washed with PBS and incubated with 10 μg/ml RNaseA and 400 μg/ml propidium iodide for 30 minutes at 37°C. Data were analyzed using FACS Diva software.

Data set [5] concerns MCF-7 spheroid. The data set is described as above. As to conditions: 25 μM, 48 hours; control 24%. Format: cell-based, human. As for the experimental part: as §4
The subject of data set [6] is MRC5, NP69, HaCaT and HMEC. More on the design: method as in PMID 23612072. To be noted: cited from earlier work.
Data set [7] deals with MCF-7 cells. Kind of data set: Annexin V/PI flow-cytometric apoptosis assay. Format: cell-based, human. As to conditions: 25 μM, 48 hours. On the procedure: Apoptosis was quantified by using a FITC Annexin V Apoptosis Detection kit according to manufacturer’s instructions. MCF-7 cells were treated with 15 μM and 25 μM of 6-shogaol for 24, 48 and 72 hours, respectively. Attached and floating cells were collected and analyzed by a flow cytometer (BD FACS Aria II).

Data set [8] has as its system MCF-7 spheroids. The data set is described as follows: Secondary sphere formation. Format: cell-based, human. To be noted: for inhibition of secondary spheroid colonies: regrown 1 week without compound. As for the experimental part: as §1
The subject of the next data set is LC3-II in MCF7 cells. Kind of data set: Western blot of LC3-II expression. The class given is cell-based, human. As to conditions: 48 hours. On the procedure:
Lysates were placed into ice for 1 hour to ensure complete lysis followed by centrifugation at 14,000 g for 10 minutes and the supernatant was collected. Proteins were subjected to SDS-PAGE and transferred to polyvinylidene fluoride membrane. The membranes were blocked and incubated overnight with primary antibodies at 4°C followed by incubation with horseradish peroxidase tagged secondary antibodies. The blots were developed using ECL reagent. The primary antibodies were used in the following dilutions: Cleaved Notch1 (1:2000), Hes1 (1:200), Cyclin D1 (1:400), PARP (1:500 for sc) and (1:1000 for CST), LC3A/B (1:500), Bcl-2 (1:1000), Bax (1:1000) and β-actin (1:2000). β-actin was used as loading controls.
Densitometry was conducted for all the western blots using […] software (Bio-Rad). Normalisation was done according to the loading control and fold change was calculated with respect to the control. For graphs, results are depicted as mean ± standard error of mean or standard deviation (calculated from two or more experiments). The p-values were obtained using Student’s unpaired t-test and p < 0.05 was considered to be statistically significant.
(In general: In western blotting, separated proteins are transferred to a membrane and probed.)

Another data set has as its system MCF-7 monolayer cells. The data set is described as follows: MTT cytotoxicity assay, monolayer. As to conditions: drug added one day after seeding. Format: cell-based, human. As for the experimental part: as §3
Data set [9] concerns MDA-MB-231 monolayer cells. The data set is described as follows: MTT cytotoxicity assay, monolayer. Format: cell-based, human. As to conditions: drug added one day after seeding. On the procedure:
as §3

The test system of a further data set is breast cancer spheroids. The data set is described as follows: Apoptosis detection in spheroids. Format: cell-based, human. To be noted: 40 μM, upto 72 or 96 hours.

Take `CCCCC/C=C/C(=O)CCc1ccc(O)c(OC)c1` [6-shogaol]: the “reduction of number of primary spheroid colonies” value in the data set on MCF-7 spheroids [1] (1 μM, 7 days) is 2 fold. In addition, the “average number of spheroid colonies (primary)” value in the data set with MCF-7 spheroids [1] (1 μM, 7 days continuous treatment, control 96) amounted to 48 colonies. The “inhibition of primary spheroid colonies” value with MCF-7 spheroids [1] (40 μM, 7 days) came out at 24 fold. For the same compound, in the data set with MCF-7 spheroids [1] (40 μM, 7 days continuous treatment, control 96), the “number of spheroid colonies (primary)” value is listed as 4 colonies. Also, the “inhibition of cell viability” value in the data set on MCF-7 spheroid [2] (10 μM, after 6 days) was 46%; with MCF-7 spheroid [2] (10 μM, day 4), ~ 35%; in the data set on MCF-7 spheroid [2] (20 μM, day 4), 56%; in the data set with MCF-7 spheroid [2] (40 μM, day 4) it was 83%. The “effective concentration in spheroids versus monolayer cells” value in the data set on MCF-7 spheroid [2] (MCF-7 spheroids vs MCF-7 monolayer) was determined as 5 fold; in the data set on MDA MB-231 spheroid (MDA-MB-231 spheroids vs MDA-MB-231 monolayer) it was 2 fold. The IC50 with MCF-7 spheroid [2] stood at 39.5 ± 0.62 µM; in the data set on MDA MB-231 spheroid, 11.2 ± 0.83 µM; in the data set with HEK 293 cells (48 hours), 69.97 ± 0.52 µM; in the data set on HaCaT cells, 103.8 ± 0.67 µM; with MCF-7 monolayer cells (48 hours), 7.94 ± 0.57 µM; in data set [9] (48 hours), 5.67 ± 0.73 µM. Further, in the data set on MDA MB-231 spheroid (more potent against MDA-MB-231 spheroids), the “potency against MDA-MB-231 spheroids versus MCF-7 spheroids” value is reported as ~ 3 fold. Moreover, in data set [3], the “percentage of CD44+CD24-/low cells (Q1)” value worked out at 2.3%. Also, the “apoptosis as measured by chromatin condensation” value in the data set on MCF-7 cells [4] (48 hours) is listed as 19%; in the data set on MCF-7 cells [4] (72 hours), 28%. Moreover, the results for the “percentage of cells in G2/M” value in the data set on MCF-7 monolayer (24h), in the data set on MCF-7 monolayer (48h) and in the data set on MCF-7 spheroid [5] were 48%, 55% and 42%, respectively. For the same compound, in [6], the “toxicity to normal cells” value is on record as “not toxic”. Moreover, the “early apoptotic cells (Annexin positive/PI negative)” value with MCF-7 cells [7] was found to be 11%. In addition, in the data set with MCF-7 spheroids [8] (concentrations above 10 μM), the secondary sphere formation entry is given as “Not a single secondary sphere was found”. The “inhibition of secondary spheroid colonies” value with MCF-7 spheroids [8] (primary spheroids treated with 1 μM for 1 week, control ~55 colonies) stood at 71%; in the data set with MCF-7 spheroids [8] (primary spheroids treated with 5 μM for 1 week) it was 80%; in the data set on MCF-7 spheroids [8] (primary spheroids treated with 10 μM for 1 week), 94.5%. Also, the “fold increase in LC3-II expression” value in the data set on LC3-II in MCF7 cells (5 μM 6-shogaol alone, relative to control) is 1.8 fold; in the data set on LC3-II in MCF7 cells (5 μM 6-shogaol in combination with low concentration of chloroquine) it was 3.3 fold; with LC3-II in MCF7 cells (15 μM 6-shogaol alone, relative to control), 2.1 fold; in the data set with LC3-II in MCF7 cells (15 μM 6-shogaol in combination with low concentration of chloroquine) it was 3.43 fold. For the same compound, the “apoptosis in breast cancer spheroids” value with breast cancer spheroids is “not able to detect appreciable amount of apoptosis”.
As for `COc1cc(/C=C/C(=O)CC(=O)/C=C/c2ccc(O)c(OC)c2)ccc1O` [Curcumin, curcumin], the IC50 with MCF-7 spheroid [2] (Homo sapiens, MCF7) came out at 7.27 ± 0.54 µM; with HEK 293 cells (Homo sapiens, HEK293, 48 hours), 23.1 ± 0.68 µM; with HaCaT cells (Homo sapiens, HaCaT), 10.4 ± 0.87 µM; in the data set on MCF-7 monolayer cells (Homo sapiens, MCF7, 48 hours), 37.1 ± 0.85 µM.
Take `CC(=O)O[C@H]1C(=O)[C@@]2(C)[C@H]([C@H](OC(=O)c3ccccc3)[C@]3(O)C[C@H](OC(=O)[C@H](O)[C@@H](NC(=O)c4ccccc4)c4ccccc4)C(C)=C1C3(C)C)[C@]1(OC(C)=O)CO[C@@H]1C[C@@H]2O` [Taxol, reference compound]: the IC50 with MCF-7 spheroid [2] (Homo sapiens, MCF7) was above 50 µM; with MDA MB-231 spheroid (Homo sapiens, MDA-MB-231), above 20 µM; in the data set with HEK 293 cells (Homo sapiens, HEK293, 48 hours) it was 0.1038 ± 0.00048 µM; with HaCaT cells (Homo sapiens, HaCaT) it was 0.0427 ± 0.00075 µM; in the data set on MCF-7 monolayer cells (Homo sapiens, MCF7, 48 hours), 0.00492 ± 0.00071 µM; in data set [9] (Homo sapiens, MDA-MB-231, 48 hours), 0.00286 ± 0.00066 µM.

The values above are taken from article PMC4565635, “6-Shogaol Inhibits Breast Cancer Cells and Stem Cell-Like Spheroids by Modulation of Notch Signaling Pathway and Induction of Autophagic Cell Death” (PLoS ONE, 2015).
